Results reported in patent publication US9758412B2, “Device for purifying liquid wastewater, and method for cleaning liquid wastewater using said device” (CENTRE NATIONAL DE LA RECHERCHE SCIENTIFIQUE (C.N.R.S.), priority 2012, dated 2017).

What was measured:
[1] = tested on: Xenopus larvae; settings: stage 50 to 54, devices: diuron-spiked tank water after 10 days of circulation, T(+): cyclophosphamide 20 mg/L in river water
Method: The mass of Tubifex tubifex worms is of the order of 500 mg (fresh weight) per sanitizing device and is representative of the average density of these oligochaete worms in the natural environment (56 000 oligochaete worms/m^2 of river).
The acute toxicity of the sanitized water is measured by incubating Xenopus larvae, selected at a stage of development of 50 to 54 […], for a period of 12 days with said sanitized water on larvae. This measurement permits observation of the signs of intoxication of the larvae induced by exposure to the water obtained at the outlet of the sanitizing device at the end of treatment.

[2] = tested on: Xenopus larvae; settings: cyclophosphamide 20 mg/L in river water; compared with negative control T(−) and sanitized water D8

SMILES: O=P1(N(CCCl)CCCl)NCCCO1 (stereo not drawn) [T(+), cyclophosphamide]
- Toxicity, 1 to 5 days [1]: Lethal
- Toxicity, 5 to 12 days [1]: Lethal
- Genotoxicity (induction of micronuclei) [2]: confirmed genotoxicity
